Data set [1] concerns splenic B cell and T cell populations. The data set can be described thus: Wild type mouse study, spleen immunophenotyping by flow cytometry. The settings on record: FIG. 21. On the technique in general: In flow cytometry, cells or beads pass a laser one at a time.
The target in the next data set is T1, CD20 (Homo sapiens, UniProt P11836).
T1 construct: host or cells: B cells of patients in vivo
T1 sequence (P11836 1-297): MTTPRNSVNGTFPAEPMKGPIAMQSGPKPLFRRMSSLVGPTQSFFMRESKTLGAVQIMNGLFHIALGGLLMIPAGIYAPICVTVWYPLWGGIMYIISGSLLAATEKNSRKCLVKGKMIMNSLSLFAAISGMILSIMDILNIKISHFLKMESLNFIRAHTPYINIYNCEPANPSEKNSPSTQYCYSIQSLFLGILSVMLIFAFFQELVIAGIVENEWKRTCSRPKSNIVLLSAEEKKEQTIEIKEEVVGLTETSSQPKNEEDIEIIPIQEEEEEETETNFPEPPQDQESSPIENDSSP
The settings on record: Arnold et al., 2017; Khellaf et al., 2014; cited from earlier work.

The test system of data set [2] is total peripheral blood B-cells from healthy donors differentiating to plasmablasts and plasma cells.

Regarding `O=C(CCCN1CCC(O)(c2ccc(Cl)cc2)CC1)c1ccc(F)cc1` [Haloperidol, haloperidol], the “Activated T cells (B220+TCR-β+) in spleen compared to control” value in data set [1] is recorded as “also modestly apparent”.

Turning to rituximab, the “Patients with ITP in whom platelet count improved” value in the data set with CD20 is listed as approximately 60%.

As for `Clc1ccc2c(c1)N=C(N1CCNCC1)c1ccccc1N2` [Norclozapine, norclozapine], the “Direct toxicity to differentiating B-cells” value in data set [2] is reported as “no direct toxicity effect”.

Values taken from patent US20210236513A1, “NOVEL USES” (ZARODEX THERAPEUTICS LIMITED, priority 2018, published 2021).
